This is an account of results in patent US8513225B2, “Composition and method for topical treatment of skin lesions” (Winlind Skincare, LLC, priority 2008, dated 2013).

Data set [1] in a line: repeated application to normal skin of adults without acne. The conditions noted are these: applied repeatedly to face and arm, 2 adults, several days.
Data set [2] is described as follows: penetration of PG into human nails. The conditions noted are these: 30 minutes after application of a thin layer to nail surface, adults.
The subject of a further data set is wart. The conditions noted are these: conventional treatment; cited from earlier work.

Each structure is given as a SMILES string.

As for `CC(O)CO` (stereo not drawn) [100% PG, propylene glycol], in data set [1], the “adverse reactions on normal skin” value is given as “No adverse reactions were observed”. Moreover, the absorption into nails entry in data set [2] was “virtually no PG can be found on the nail surface”.

For `O=C(O)c1ccccc1O` [high strength salicylic acid, salicylic acid], the “time for wart removal process” value in the data set on wart is reported as 6 to 12 weeks.
